Data on 4 molecules can be found in US12070471B2, “Remote loading of sparingly water-soluble drugs into lipid vesicles” (CELATOR PHARMACEUTICALS, INC., priority 2014, dated 2024).

Molecules are shown by their SMILES. A value given as a limit tells only on which side of the number the result lay.

The nature of data set [1]: Remote loading of taxane derivative precipitates into liposomes. In kind it is physicochemical. The method, then: Liposomes were prepared using the extrusion and purification method described in Example 1. The lipid composition was POPC/cholesterol (3/0.5, mol/mol). The trapping agent consisted of zinc acetate or magnesium acetate at 120 mM. A solution of either unmodify carbazitaxel or 2′succinylcarbazitaxel in DMSO at 20 mg/mL was added to the liposome solution slowly over 30 seconds while vortexing to produce a drug precipitate in the liposome solution. The target drug to phospholipid ratio was 100 g/mole lipid for unmodified carbazitaxel and 100, 150 or 200 g for succinylcarbazitaxel/mol phospholipid. The solutions are heated for 30 min at 45° C. and then cooled on ice. A sample was removed to determine the input drug to lipid ratio and the remaining solution was spun in a centrifuge at 12,000 RPM for 5 minutes to pellet any unloaded drug. The supernatant was further purified from unloaded drug using a Sephadex G25 size exclusion column eluted with 5 mM HEPES, 145 mM NaCl at pH 6.5. The purified liposomes were analyzed for drug and lipid content by HPLC as described in Example 16.
To encapsulate the 2′ morpholine-4-ylethyl amide of succinylcabazitaxel, liposomes were prepared with a lipid composition of HSPC/DSPG/Chol/PEG-DSPE in the ratio 2/0.6/2/0.3 containing 1.0 M (SO4) TEA dextran sulfate. The liposomes were separated form the non-entrapped TEA dextran sulfate by anion exchange and then by dialysis against 5 mM Hepes buffered 10% (wt/wt) sucrose, pH 6.5. 2′ morpholine-4-ylethyl amide of succinylcabazitaxel was dissolved in DMSO at 10 mg/mL.
In a typical preparation, the DMSO 2′ morpholine-4-ylethyl amide of succinylcabazitaxel solution was added dropwise to the liposomes at room temperature while the liposomes suspension was rapidly mixed on a vortex mixer. […] The purified liposomes were analyzed for drug and lipid content by HPLC as described in Example 16. […]

A short description of data set [2]: Remote loading of amphotericin B precipitate into TEA dextran sulfate liposomes. In kind it is physicochemical. The method, then:
Liposomes were prepared with a lipid composition of HSPC/DSPG/Chol/PEG-DSPE in the ratio 2/0.6/2/0.3 containing 1.0 M (SO4) TEA dextran sulfate. The liposomes were separated form the non-entrapped TEA dextran sulfate by anion exchange and then by dialysis against 5 mM Hepes buffered 10% (wt/wt) sucrose pH 6.5. The liposomes were exchanged into 0.01 N HCL, 10% sucrose pH 2.0 before drug loading. Amphotericin B was dissolved in DMSO at 10 mg/ml.
In a typical preparation, the DMSO amphotericin B solution was added dropwise to the liposomes at room temperature while the liposomes suspension was rapidly mixed on a vortex mixer. The concentration of the liposomal lipid was 5 umol (phospholipid)/mL and 0.1 mL of the amphotericin B solution was added per mL of liposomes so that the final amphotericin B concentration was about 1.0 mg/ml AmB and the final DMSO concentration was about 10% (V/V). By adjusting the amount of liposomes in the preparation various AmB/PL ratios were tested, e.g., 200, 400, 800 g/mol.
The samples were heated at 65° C. for 15 min. Then cooled on ice for 30 minutes. The preparation was then passed through a PD10 (Sephadex G25) gel filtration column to remove any precipitated amphotericin B that was not incorporated into the liposome. […] The diameter of the drug loaded liposomes was not changed at the 200 and 400 g drug/mole lipid input ratio and were slighted larger circa 10% in the 800 g drug lipid ratio. The purified liposomes were analyzed for drug and lipid content by the HPLC method as described in Example 1.

Data set [3] can be described thus: Carfilzomib liposome entrapment by remote loading from precipitate (drug and lipid by HPLC after purification). It is filed as physicochemical. How it is done: Ammonium sulfate solution was prepared by dissolving ammonium sulfate solid to a final concentration of 250 mM (500 mequivilents of anion/L) no pH adjustment was made to yield a final pH of 5.6. Sodium sulfate solution (250 mM) was prepared by adding 0.35 g sodium sulfate to 10 mL deionized water.
The liposomes were formed by extrusion. Lipids were dissolved in ethanol at a concentration of 500 mM HSPC (591 mg/mL total lipid) at 65° C. and the 9 volumes of the trapping agent solution heated to 65° C. was added to the ethanol/lipid solution also at 65° C. The mixture was vortexed and transferred to a 10 mL thermostatically controlled (65° C.) Lipex Extruder. The liposomes were formed by extruding 10 times through polycarbonate membranes having 0.1 um pores. After extrusion the liposomes were cooled on ice. The transmembrane electrochemical gradient was formed by purification of the liposomes by dialysis in dialysis tubing having a molecular weight cut off of 12,000-14,000. […] The conductivity of the liposome solution was measured and was indistinguishable from the dialysis medium ˜40 μS/cm.
The lipid concentration is determined by measuring the cholesterol by HPLC using an Agilent 1100 HPLC with and Agilent Zorbax 5 um, […], Eclipse XDB-C8 column and a mobile phase of A=0.1% TFA, B=0.1% TFA/MeOH with an isocratic elution of 99% B. The flow rate is 1.0 mL/min, column temperature is 50° C., 10 μL injection and detection by absorbance at 205 nm. […] The liposome size is measured by dynamic light scattering.
Carfilzomib (Selleck Chemicals) was dissolved in DMSO at a concentration of 10 mg/mL. […] The supernatants were purified on a Sephadex G25 column collected and analyzed by HPLC. […] The mobile phase consists of A=0.1% TFA, B=0.1% TFA/MeOH with a gradient elution starting at 50% B and increasing to 83% B in 13 min with 7 min equilibration back to 50% B. The flow rate is 1.0 mL/min, column temperature is 30 C, 10 μl injection and detection by absorbance at 205 nm. […] The lipid concentration is determined by analysis of the cholesterol by HPLC. […]

A short description of data set [4]: Reverse gradient-directed drug release from liposomes. It is filed as physicochemical. The method, then:
Liposomes were loaded with carfilzomib as described in Example 1 and were purified into deionized water. The sample was divided into two aliquots. To the first aliquot, concentrated Hepes pH 7.4 and NaCl was added so that the final concentration was 5 mM Hepes, 145 mM NaCl (HBS). To the second aliquot, concentrated ammonium sulfate was added so that the final concentration was 250 mM. No obvious physical changes were initially observed. The samples were then heated at 65° C. for 30 min. The samples were transferred to clean eppendorf tubes and centrifuged for 10,000 rpm for 5 min after which the supernatants and precipitates were separated and tested for carfilzomib content by HPLC assay. Released drug precipitated, liposome encapsulated drug remained in the supernatant. The % carfilzomib released was calculated by […]

Data set [5] in a line: Drug precipitate loading followed by light scattering at 600 nm. In kind it is physicochemical. How it is done:
Liposomes containing 250 mM ammonium sulfate as trapping agent and 250 mM sodium sulfate as control liposomes which would not remote load drug. The liposomes were prepared and loaded using the procedure described in Example 1 except a disposable polystyrene cuvette was used as the reaction vessel. The scattering of light at 600 nm was measured with a UV/vis spectrophotometer during the loading process.

The nature of data set [6]: Carfilzomib solubility as a function of DMSO content (optical density at 600 nm). The following applies: 0.2 mg/mL. It is filed as physicochemical. The method, then:
Carfilzomib was added from a stock 10 mg/mL solution in DMSO to 1 mL of a citric acid/DMSO mixture so that the composition of DMSO was 2%, 25%, 50%, 75% and 100%. The final drug concentration was 0.2 mg/mL. The solutions were prepared and measured for optical density at 600 nm. The optical density at 600 nm is a good measure of how turbid or how much scattering material (such as drug precipitates) are in a solution, generally, the more precipitates the higher the absorbance. From FIG. 8 is apparent that at DMSO concentrations below 50% vol/vol (25° C.) and 25% vol/vol (65° C.) the drug remains in a precipitated form. Only when the concentration of DMSO is increased does it become effectively solubilized at this concentration of 0.2 mg/mL.

The conditions of data set [7]: elimination in the blood stream, unencapsulated drug; cited from earlier work.

`CO[C@H]1C(=O)[C@]2(C)[C@@H](OC)C[C@H]3OC[C@@]3(OC(C)=O)[C@H]2[C@H](OC(=O)c2ccccc2)[C@]2(O)C[C@H](OC(=O)[C@H](OC(=O)CCC(=O)O)[C@@H](NC(=O)OC(C)(C)C)c3ccccc3)C(C)=C1C2(C)C` [2′ succinylcabazitaxel, 2′-succinylcarbazitaxel]: the loading efficacy entry in data set [1] (POPC/cholesterol liposomes with zinc acetate or magnesium acetate 120 mM, 45 C 30 min) is on record as “greater than 85%”.

For `C[C@@H]1[C@H](O)[C@@H](C)/C=C/C=C/C=C/C=C/C=C/C=C/C=C/[C@H](O[C@@H]2O[C@H](C)[C@@H](O)[C@H](N)[C@@H]2O)C[C@@H]2O[C@](O)(C[C@@H](O)C[C@@H](O)[C@H](O)CC[C@@H](O)C[C@@H](O)CC(=O)O[C@H]1C)C[C@H](O)[C@H]2C(=O)O` [Amphotericin B], the “amphotericin B concentration to which final liposome preparation was readily concentrated” value in data set [2] (5 mM Hepes, 144 mM NaCl, pH 7.4 buffer) is given as 10 mg/mL. Moreover, the “diameter of the drug loaded liposomes” value in data set [2] (200 and 400 g drug/mole lipid input ratio) is recorded as “not changed”. In addition, the “increase of diameter of the drug loaded liposomes” value in data set [2] (800 g drug lipid ratio) is reported as “circa 10%”. In addition, the remote loading efficiency in data set [2] (input 200 g drug/mole lipid) was determined as 96%. In addition, in data set [2] (input 400 g drug/mole of lipid), the “drug content of purified preparation” value is given as 360 g amphotericin B/mole lipid and the encapsulated result is “about 90%”. In data set [2] (input 800 g drug/mole lipid), the “drug content of purified preparation” value is given as 560 g amphotericin B/mole lipid and the encapsulated entry is listed as “about 70%”.

As to `CO[C@H]1C(=O)[C@]2(C)[C@@H](OC)C[C@H]3OC[C@@]3(OC(C)=O)[C@H]2[C@H](OC(=O)c2ccccc2)[C@]2(O)C[C@H](OC(=O)[C@H](O)[C@@H](NC(=O)OC(C)(C)C)c3ccccc3)C(C)=C1C2(C)C` [cabazitaxel], the efficiency of loading entry in data set [1] (100 g carbazitaxel/mol phospholipid, calcium acetate and magnesium acetate liposomes (so in the source)) was “very low”. The “encapsulation, % of the added drug” value in data set [1] (TEA-dextran sulfate liposomes) is recorded as less than 5%.

On to `CC(C)C[C@H](NC(=O)[C@H](CCc1ccccc1)NC(=O)CN1CCOCC1)C(=O)N[C@@H](Cc1ccccc1)C(=O)N[C@@H](CC(C)C)C(=O)[C@@]1(C)CO1` [carfilzomib], for which the “loading capacity of remote loaded liposomes relative to sodium sulfate liposomes” value in data set [3] (ammonium sulfate vs sodium sulfate liposomes) is greater than 3 fold. The “impact of delay between precipitate formation and loading on loading efficiency” value in data set [3] (delay up to 12 h) is listed as “does not have a significant impact”. This molecule displayed a greatest payload in data set [3] (triethylammonium sulfate gradient (500 mM), input 650 g drug/mol HSPC, 30 min, 10% DMSO) of 440±12.6 g drug/mol HSPC. In addition, in data set [4], the “drug released with reverse gradient relative to control with no reverse gradient” value was determined as 6.5 fold. For the same molecule, in data set [4] (after loading and reverse gradient release), the “degradation of released drug (HPLC chromatogram vs starting material)” value is given as “no degradation”. Also, the “time to clarification of the solution during loading” value in data set [5] (ammonium sulfate liposomes) is given as no more than 15 min. For the same molecule, the “clarification of the precipitate during loading” value in data set [5] (sodium sulfate liposomes) is recorded as “do not show any clarification”. For the same molecule, the “DMSO concentration at which the drug remains in a precipitated form” value in data set [6] (25 C) is “below 50 % vol/vol”; in data set [6] (65 C), less than 25 % vol/vol. Also, the t1/2 in data set [7] is given as less than 20 min.
